One block for each molecule: values may come before it. Active and inactive are the calls of the source.
Assays:
Bcl-2-related protein A1 [1] = biological target: T1, Bcl-2-related protein A1 (Mus musculus, UniProt Q07440); test: Bfl-1 inhibitors blocking BH3 peptide binding, confirmation, biochemical, TR-FRET, mouse Bfl-1 (AID 621);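 note: TR-FRET binding of GST-Bfl-1 to FITC-labelled Bid peptide via terbium antibody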
T1 sequence (Q07440 whole entry): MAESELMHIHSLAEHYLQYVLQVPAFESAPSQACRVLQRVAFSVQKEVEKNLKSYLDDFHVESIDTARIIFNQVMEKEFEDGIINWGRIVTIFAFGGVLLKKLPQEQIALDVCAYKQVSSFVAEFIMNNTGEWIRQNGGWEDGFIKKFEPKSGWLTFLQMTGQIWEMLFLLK

Bcl-2-related protein A1 [2] = biological target: T1, Bcl-2-related protein A1; test: Bfl-1 binding inhibitors, SAR follow-up, biochemical, fluorescence polarization (AID 1070)
[3] = biological target: Glyceraldehyde-3-phosphate dehydrogenase (Homo sapiens, UniProt P04406)
Glyceraldehyde-3-phosphate dehydrogenase, sequence (P04406 whole entry, the tested form may be a part): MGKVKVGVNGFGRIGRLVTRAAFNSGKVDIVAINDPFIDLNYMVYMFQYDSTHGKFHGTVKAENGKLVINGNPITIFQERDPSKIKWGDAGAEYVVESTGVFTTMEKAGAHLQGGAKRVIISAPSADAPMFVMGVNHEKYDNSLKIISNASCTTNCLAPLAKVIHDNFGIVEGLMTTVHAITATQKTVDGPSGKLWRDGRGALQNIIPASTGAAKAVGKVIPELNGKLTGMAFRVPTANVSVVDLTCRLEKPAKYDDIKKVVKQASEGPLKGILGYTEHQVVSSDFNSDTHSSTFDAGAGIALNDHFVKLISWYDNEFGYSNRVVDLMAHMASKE

[4] = biological target: T2, RNA-binding protein pos-1 (Caenorhabditis elegans, UniProt G5EF15); test: inhibitors of POS-1/mex-3 RNA binding, dose response, biochemical, fluorescence polarization (AID 1964);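 note: purified POS-1 fused to maltose binding protein made in E. coli; potency of compounds blocking POS-1 binding to fluorescent RNA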
T2 sequence (G5EF15 whole entry): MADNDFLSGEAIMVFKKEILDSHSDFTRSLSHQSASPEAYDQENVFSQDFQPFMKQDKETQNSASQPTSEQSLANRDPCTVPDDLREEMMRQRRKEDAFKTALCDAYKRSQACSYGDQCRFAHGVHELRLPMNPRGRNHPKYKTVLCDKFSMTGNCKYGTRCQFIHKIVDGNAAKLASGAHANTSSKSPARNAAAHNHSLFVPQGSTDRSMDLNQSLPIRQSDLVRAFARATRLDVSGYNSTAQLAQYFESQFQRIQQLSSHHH

[5] = biological target: T3, Histone-lysine N-methyltransferase NSD2 (Homo sapiens, UniProt O96028); type: biochemical
T3 sequence (O96028 whole entry): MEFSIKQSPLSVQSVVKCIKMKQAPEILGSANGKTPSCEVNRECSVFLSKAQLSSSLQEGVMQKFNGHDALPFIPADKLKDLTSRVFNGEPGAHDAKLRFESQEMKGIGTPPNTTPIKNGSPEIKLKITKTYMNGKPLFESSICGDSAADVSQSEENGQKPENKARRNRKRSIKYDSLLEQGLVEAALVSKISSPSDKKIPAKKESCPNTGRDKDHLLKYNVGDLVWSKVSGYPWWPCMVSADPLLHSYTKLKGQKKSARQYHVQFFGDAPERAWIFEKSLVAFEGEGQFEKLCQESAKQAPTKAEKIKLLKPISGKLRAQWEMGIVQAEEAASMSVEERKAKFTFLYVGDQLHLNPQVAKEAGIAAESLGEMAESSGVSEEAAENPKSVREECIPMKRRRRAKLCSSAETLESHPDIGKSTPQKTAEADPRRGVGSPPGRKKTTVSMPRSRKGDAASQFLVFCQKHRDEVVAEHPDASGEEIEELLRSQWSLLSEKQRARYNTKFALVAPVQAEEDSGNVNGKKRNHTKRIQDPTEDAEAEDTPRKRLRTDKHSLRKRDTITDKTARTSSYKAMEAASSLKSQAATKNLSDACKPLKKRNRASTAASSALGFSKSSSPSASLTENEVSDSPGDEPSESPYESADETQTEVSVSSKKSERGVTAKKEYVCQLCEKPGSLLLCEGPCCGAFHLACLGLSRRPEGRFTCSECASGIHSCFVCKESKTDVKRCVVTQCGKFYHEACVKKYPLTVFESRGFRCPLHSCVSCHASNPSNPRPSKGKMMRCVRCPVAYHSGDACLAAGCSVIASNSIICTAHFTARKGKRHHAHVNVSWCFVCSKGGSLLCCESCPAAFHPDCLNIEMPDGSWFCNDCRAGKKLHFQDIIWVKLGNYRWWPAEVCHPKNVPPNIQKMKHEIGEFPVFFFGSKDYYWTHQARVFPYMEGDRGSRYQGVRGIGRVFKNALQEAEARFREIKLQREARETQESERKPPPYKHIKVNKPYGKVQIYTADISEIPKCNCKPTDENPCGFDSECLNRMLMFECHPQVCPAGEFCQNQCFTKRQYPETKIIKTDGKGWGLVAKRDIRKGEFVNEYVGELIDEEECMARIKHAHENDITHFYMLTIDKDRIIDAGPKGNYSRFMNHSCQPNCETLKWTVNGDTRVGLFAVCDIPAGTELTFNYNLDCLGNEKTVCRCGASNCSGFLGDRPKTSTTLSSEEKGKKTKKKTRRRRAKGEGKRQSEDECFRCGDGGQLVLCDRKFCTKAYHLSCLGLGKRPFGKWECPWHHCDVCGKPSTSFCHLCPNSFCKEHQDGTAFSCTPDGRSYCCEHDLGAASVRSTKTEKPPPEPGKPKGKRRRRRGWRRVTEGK

[6] = biological target: T4, Zinc finger protein mex-5 (Caenorhabditis elegans, UniProt Q9XUB2); test: MEX-5/TCR-2 RNA interaction inhibitors, dose response, biochemical, C. elegans, fluorescence polarization (AID 1960)
T4 sequence (Q9XUB2 whole entry): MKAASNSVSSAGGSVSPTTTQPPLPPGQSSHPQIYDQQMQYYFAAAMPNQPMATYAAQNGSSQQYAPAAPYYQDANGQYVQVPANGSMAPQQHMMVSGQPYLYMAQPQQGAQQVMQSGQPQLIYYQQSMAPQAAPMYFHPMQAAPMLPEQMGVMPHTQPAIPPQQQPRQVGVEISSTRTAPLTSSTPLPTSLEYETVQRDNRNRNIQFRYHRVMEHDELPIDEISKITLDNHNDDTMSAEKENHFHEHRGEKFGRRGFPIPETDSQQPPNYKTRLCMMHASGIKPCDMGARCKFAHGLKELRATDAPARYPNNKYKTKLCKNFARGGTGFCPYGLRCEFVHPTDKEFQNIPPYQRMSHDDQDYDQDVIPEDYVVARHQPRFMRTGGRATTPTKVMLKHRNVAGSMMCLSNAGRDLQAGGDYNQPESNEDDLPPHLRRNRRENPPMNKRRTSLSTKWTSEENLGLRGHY

[7] = HepG2 cell cytotoxicity, dose response, cytotoxicity control, ATP luminescence, cherry-pick, activator set 2 (AID 1053143); type: functional, cell-based
[8] = biological target: T5, E3 ubiquitin-protein ligase XIAP (Homo sapiens, UniProt P98170); test: Counter Screen using XIAP-Bir3 for Chemical Antagonists of Bir1/2 domains of IAP-family anti-apoptotic proteins. [Related pubchem assays (depositor defined):AID1018, AID1449, AID1514, AID1638, AID1749, AID1750, AID488957, AID488963]
T5 sequence (P98170 whole entry): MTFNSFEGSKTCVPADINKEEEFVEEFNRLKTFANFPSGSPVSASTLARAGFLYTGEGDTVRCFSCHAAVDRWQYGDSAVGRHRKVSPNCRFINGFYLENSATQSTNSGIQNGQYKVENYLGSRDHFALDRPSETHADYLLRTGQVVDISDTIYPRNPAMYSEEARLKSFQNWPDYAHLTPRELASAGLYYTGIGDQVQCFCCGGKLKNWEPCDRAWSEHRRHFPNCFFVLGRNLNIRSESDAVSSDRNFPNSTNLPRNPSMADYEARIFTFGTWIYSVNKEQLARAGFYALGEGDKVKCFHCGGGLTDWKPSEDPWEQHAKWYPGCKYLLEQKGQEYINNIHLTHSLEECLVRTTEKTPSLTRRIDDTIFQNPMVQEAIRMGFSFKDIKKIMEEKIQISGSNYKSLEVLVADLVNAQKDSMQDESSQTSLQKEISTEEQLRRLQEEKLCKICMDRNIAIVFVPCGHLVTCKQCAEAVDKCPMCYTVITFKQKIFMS

[9] = biological target: T5, E3 ubiquitin-protein ligase XIAP; test: XIAP antagonists, biochemical, IAP family, fluorescence polarization (AID 1018); type: functional
[10] = biological target: T6, Heat shock factor protein 1 (Mus musculus, UniProt P38532); test: inhibition of MG132-induced HSE-luciferase signal, confirmation, cell-based, NIH3T3, luminescence, dose retest (AID 2382); type: functional;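 note: NIH3T3 fibroblasts with HSF1-driven luciferase reporter stressed by proteasome inhibitor MG132; luminescence from HSF1-driven luciferase expression after 8 hours of MG132 stress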
T6 sequence (P38532 whole entry): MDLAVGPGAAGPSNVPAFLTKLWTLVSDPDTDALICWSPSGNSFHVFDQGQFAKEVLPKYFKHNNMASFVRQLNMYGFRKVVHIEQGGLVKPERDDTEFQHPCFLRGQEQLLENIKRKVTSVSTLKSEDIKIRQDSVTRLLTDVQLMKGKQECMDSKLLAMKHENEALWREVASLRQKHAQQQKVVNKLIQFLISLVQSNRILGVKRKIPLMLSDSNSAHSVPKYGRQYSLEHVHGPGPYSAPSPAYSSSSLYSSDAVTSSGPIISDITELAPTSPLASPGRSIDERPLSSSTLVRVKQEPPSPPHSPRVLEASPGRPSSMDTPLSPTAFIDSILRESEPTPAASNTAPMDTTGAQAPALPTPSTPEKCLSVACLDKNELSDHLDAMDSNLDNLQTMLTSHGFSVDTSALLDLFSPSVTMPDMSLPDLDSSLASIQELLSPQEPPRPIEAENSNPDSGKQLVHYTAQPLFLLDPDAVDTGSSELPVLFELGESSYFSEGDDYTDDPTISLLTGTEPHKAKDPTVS

Estrogen receptor beta = Estrogen receptor beta (Homo sapiens, UniProt Q92731); test: ERβ–SRC-3 coactivator interaction inhibitors, confirmation, orthogonal assay, biochemical, ELISA, streptavidin-HRP readout (AID 1060)
Estrogen receptor beta, sequence (Q92731 whole entry): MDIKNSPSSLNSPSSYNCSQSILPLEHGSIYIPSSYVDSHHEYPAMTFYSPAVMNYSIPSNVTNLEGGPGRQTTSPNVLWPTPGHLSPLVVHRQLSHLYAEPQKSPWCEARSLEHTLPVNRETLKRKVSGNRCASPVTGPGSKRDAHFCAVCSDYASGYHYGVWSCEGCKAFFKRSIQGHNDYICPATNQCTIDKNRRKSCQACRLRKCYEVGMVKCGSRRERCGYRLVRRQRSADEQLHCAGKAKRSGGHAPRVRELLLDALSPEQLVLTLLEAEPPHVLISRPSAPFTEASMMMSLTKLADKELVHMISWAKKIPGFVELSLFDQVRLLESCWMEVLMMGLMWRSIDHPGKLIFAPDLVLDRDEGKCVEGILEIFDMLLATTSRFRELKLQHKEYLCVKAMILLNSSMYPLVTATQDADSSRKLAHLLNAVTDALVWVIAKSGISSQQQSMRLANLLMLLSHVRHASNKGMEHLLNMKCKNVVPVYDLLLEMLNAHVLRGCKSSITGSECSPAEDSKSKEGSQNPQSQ

Cytochrome P450 3A4 = Cytochrome P450 3A4 (Homo sapiens, UniProt P08684); settings: Potency;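 note: confirmatory qHTS run detecting inhibitors and substrates of CYP3A4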
Cytochrome P450 3A4, sequence (P08684 whole entry): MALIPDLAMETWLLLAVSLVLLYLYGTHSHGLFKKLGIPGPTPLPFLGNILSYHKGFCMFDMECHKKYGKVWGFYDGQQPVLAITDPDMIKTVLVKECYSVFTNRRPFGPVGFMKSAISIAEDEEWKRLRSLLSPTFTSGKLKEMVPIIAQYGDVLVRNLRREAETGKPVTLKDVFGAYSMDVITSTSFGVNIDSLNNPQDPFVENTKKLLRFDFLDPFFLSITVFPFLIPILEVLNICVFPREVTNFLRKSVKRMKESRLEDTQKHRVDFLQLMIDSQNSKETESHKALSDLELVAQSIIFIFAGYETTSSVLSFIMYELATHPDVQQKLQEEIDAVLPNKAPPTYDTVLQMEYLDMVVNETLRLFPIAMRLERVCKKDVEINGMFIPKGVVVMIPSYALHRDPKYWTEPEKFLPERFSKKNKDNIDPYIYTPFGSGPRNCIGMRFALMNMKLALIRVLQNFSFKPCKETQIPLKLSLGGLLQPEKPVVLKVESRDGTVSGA

[11] = LGR2 antagonists, dose response, cell-based, HEK293, CRE-luciferase reporter, cherry pick, set 2 (AID 743343); type: functional;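 note: transfected cells were stimulated with diluted bursicon conditioned medium after compound addition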
BJ [12] = test: cytotoxicity toward BJ-TERT-LT-ST fibroblasts, dose response, cell-based, RAS-independent, luminescence (AID 1935); type: functional; settings: Homo sapiens;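 note: BJ fibroblasts immortalized with TERT plus LT and ST oncogenes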
[13] = HepG2 cell cytotoxicity, dose response, cytotoxicity control, plate reader, cherry-pick, antagonist series (AID 743416); type: functional, cell-based
[14] = HEK293 cell cytotoxicity, dose response, cytotoxicity control, plate reader, cherry-picked samples (AID 743446); type: functional, cell-based
[15] = MC4R antagonists, dose response, counter-screen for LGR2 antagonist project, cell-based, plate reader, cherry pick (AID 743444); type: functional;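 note: transfected HEK 293 cells stimulated with alpha-MSH peptide; potency of inhibitors of the alpha-MSH evoked signal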
BJ [16] = test: cytotoxicity toward BJ-TERT fibroblasts, dose response, cell-based, RAS-independent, luminescence (AID 1933); type: functional; settings: Homo sapiens
[17] = cytotoxicity toward DRD oncogenic fibroblasts, dose response, cell-based, non-viral oncogenic, luminescence (AID 1934); type: functional; settings: Homo sapiens
BJ [18] = test: cells; type: functional, cell-based; settings: Homo sapiens
[19] = A549 cell cytotoxicity, dose response, cytotoxicity control, plate reader, cherry-pick, antagonist series (AID 743412); type: functional, cell-based

IC50 (Bcl-2-related protein A1 [1]): > 100 µM (not active) | IC50 (Bcl-2-related protein A1 [2]): > 100 µM (not active)
Compound: Clc1ccc(-n2nnc(-c3cccnc3Cl)n2)cc1Cl

IC50 (Bcl-2-related protein A1 [1]): 3.51 µM (active) | IC50 [3]: > 100 µM (not active) | IC50 (Bcl-2-related protein A1 [2]): 2.59 µM (active)
Compound: O=C1C(Cl)=C(N2CCN(CCOCCO)CC2)C(=O)N1c1ccc([N+](=O)[O-])cc1

EC50 [4]: 83.7 µM (active) | AC50 [5]: > 20 µM (inactive) | EC50 [6]: 40.8 µM (active)
Compound: O=C(O)c1cccc(-n2cccc2/C=C\[N+](=O)[O-])c1

Compound: Cc1csc(NC(=O)c2sccc2C)n1
AC50 [7]: 26 µM (active)

Compound: O=C1C(Cl)=C(Cl)C(=O)N1c1c(Cl)cccc1Cl
IC50 (Bcl-2-related protein A1 [1]): 30 µM (active) | IC50 [3]: > 100 µM (not active) | IC50 (Bcl-2-related protein A1 [2]): > 100 µM (not active)

IC50 [8]: > 100 µM (inactive) | IC50 [9]: > 100 µM (not active)
Compound: O=C(NCc1ccc(Cl)cc1)c1ccc2[nH]cnc2c1

IC50 [8]: > 100 µM (inactive) | IC50 [9]: > 100 µM (not active) | EC50 [10]: > 195 µM (not active)
Compound: N#CC1(C#N)COC23CCCCC2C1(C#N)C(=N)O3 (stereo not given)

IC50 (Estrogen receptor beta): > 50 µM (not active)
Compound: COC(=O)c1ccc(NC(=O)CSc2nc(C)cc(=O)[nH]2)cc1

AC50 (Cytochrome P450 3A4): 25.1 µM (inconclusive)
Compound: Cc1nc(NC2CCCCC2)c2nc(-c3ccccc3)n(CCN3CCCC3)c2n1

Compound: CN(C)C(=O)Oc1ccc(OCc2nc3ccccc3[nH]2)cc1
AC50 [11]: 6.62 µM (active) | EC50 (BJ [12]): 22.3 µM (active) | AC50 [13]: 13.8 µM (active) | AC50 [14]: 10.2 µM (active) | AC50 [15]: 6.14 µM (active) | EC50 (BJ [16]): 8.38 µM (inconclusive) | EC50 [17]: 8.55 µM (inconclusive) | EC50 (BJ [18]): 11.2 µM (inconclusive) | AC50 [19]: 11.8 µM (active)

IC50 [8]: > 100 µM (inactive) | IC50 [9]: > 100 µM (not active)
Compound: CC(C)CC1(C(=O)O)NC(c2ccccc2O)C2C(=O)N(C(C)C)C(=O)C21 (stereo not given)
